The values below come from US10426745B2, “Polymeric metformin and its use as a therapeutic agent and as a delivery vehicle” (The University of North Carolina at Chapel Hill, priority 2015, dated 2019).

Assay [1] relates to luciferase plasmid. The assay is described as follows: pDNA transfection efficiency with luciferase plasmid. The assay is classed as cell-based. As for the experimental part: FIG. 10 depicts transfection efficiency of (A) L-PEI and L-PolyMet and (B) B-PEI and B-PolyMet at the indicated N/P ratios. Luciferase pDNA concentration was 0.5 μg/well in 96-well plate. Data are mean±S.D. (n=6 per group).

Assay [2] deals with H460 tumor. The assay is described as follows: H460 xenograft tumor growth / antitumor activity. The assay is classed as in vivo, mice. The settings on record: vs PBS and LPH-PEI groups; IV 0.4 mg/kg body weight every other day. As for the experimental part:
FIG. 6A depicts Metformin and PolyMet inhibit H460 tumor growth. PBS, metformin, LPH-PEI and LPH-PolyMet were administered intravenously every other day, and mice were sacrificed 24 hours after the final injection. In FIG. 6A, tumor volumes were measured every day; FIG. 6B depicts tumor weights were measured on day after final injection and compared with body weights to determine percentage of tumor burden; FIG. 6C depicts visual observations of the H460 tumor sizes in each treatment group at the end time point; (n=5 per group).
Female nude female mice and female CD1 mice that were 6-8 weeks old were used in the studies. Female nude mice were purchased from National Cancer Institute (Bethesda, Md.) and bred by the Division of Laboratory Animal Medicine (DLAM) at University of North Carolina at Chapel Hill. CD1 mice were purchased from Charles River Laboratories (Morrisville, N.C.). To establish the xenograft models, 5×10^6 cells in 100 μL of PBS were injected subcutaneously into the right flank of the mice.
Human NSCLC cells xenografts were used as previously described. H460 human lung cancer cells ([…]) were subcutaneously injected into the right flanks of female athymic nu/nu mice. […] Animal weight and tumor volumes were measured every other day. […]

Assay [3] concerns AMPKα. The experiment in a line: Western blot of tumor proteins: AMPKα phosphorylation. To be noted: H460 tumors, IV every other day. The assay is classed as in vivo, mice. As to the method:
(§1) FIG. 7A depicts Metformin and PolyMet inhibition of tumor growth by activation of AMPK, inhibiting the mTOR pathway; FIG. 7B depicts inducing autophagy and apoptosis mechanisms. Mice bearing H460 tumors were given IV injections every other day and analysis of tumor proteins was prepared 24 h after the second injection. Cells under autophagy were stained by LC3b antibody (red) and apoptosis of cells was indicated by TUNEL assay (green). Nuclei are stained blue. The percentage denotes the average percentage of LC3b positive cells (red) and the percentage of TUNEL positive cells (green), respectively. Five randomly selected microscopic fields were quantitatively analyzed on ImageJ. Data are mean±S.D. (n=5 per group).
(§2) H460 tumor-bearing mice were given IV injections every second day and mice were sacrificed 24 hours after the third injection. Protein per lane was separated by 4%-12% SDS-PAGE electrophoresis (Invitrogen) before being transferred to polyvinylidene difluoride (PVDF) membranes (Bio-Rad). The membranes were blocked for 1 h with 5% non fat dry milk (Bio-Rad) at room temperature and then incubated with antibodies overnight at 4° C. The membranes were washed 3 times and then incubated with a secondary antibody (1:4,000 dilution; Cell signal Inc.) at room temperature for 1 h. […]
For orientation: Immunoblotting shows a protein as a band on a membrane.

The test system of assay [4] is mTOR. The assay is described as follows: Western blot of tumor proteins: p-mTOR/mTOR. The assay is classed as in vivo, mice. To be noted: H460 tumors; compared to the PBS and LPH-PEI. As to the method:
as §1, §2

Assay [5] has as its system LC3b. The assay is described as follows: LC3b immunostaining of H460 tumors (autophagy). Format: in vivo, mice. The settings on record: vs other groups. As for the experimental part: as §1
Assay [6] has as its system H460 tumor cells. The experiment in a line: TUNEL assay of in vivo tumor cell apoptosis. Further details: species or system mice. To be noted: H460 tumors after IV treatment. As to the method:
as §1
FIG. 8 depicts in vitro and in vivo gene silencing effect of different LPH nanoparticles. […] Luciferase activities of cells were analyzed and normalized by protein. *p<0.05, **p<0.01, ***p<0.001. […] H460 tumor-bearing mice were injected intravenously every other day; FIG. 8B depicts tumor BCL2 protein levels after 2 injections were measured by western blot analysis; FIG. 8C depicts tumor volumes were measured every day; FIG. 8D depicts TUNEL staining in H460 tumor cells after treatment with siRNA in different formulations in vivo. […] Five randomly selected microscopic fields were quantitatively analyzed on ImageJ. […]

Consider protamine, for which the “transfection efficiency” value in assay [1] is given as “did not help”.

In the case of `CN(C)C(=N)NC(=N)N` [Metformin, N,N-dimethylimidodicarbonimidic diamide], the “inhibition of cancer progression (tumor growth)” value in assay [2] is on record as “significant inhibition”. In addition, in assay [3], the “phosphorylation level of AMPKα relative to PBS group” value is reported as “about 9 fold”. In assay [4], the “reduction in p-mTOR/mTOR levels” value came to 2.3 fold. Further, the “LC3b-associated red fluorescence (autophagy)” value in assay [5] was “higher”. Moreover, the “percent of apoptotic (TUNEL-positive) cells” value in assay [6] worked out at 18.8%.
